Results taken from article PMC6270924, “A New Urease Inhibitor from Viola betonicifolia” (Molecules, 2014).

Target: jack bean urease (Canavalia ensiformis, UniProt P07374)
Assay: urease inhibition by indophenol (Weatherburn) ammonia assay; Lineweaver-Burk, secondary replot and Dixon plot kinetics (IC50 […])
Format: biochemical

jack bean urease, sequence (P07374 whole entry, looked up): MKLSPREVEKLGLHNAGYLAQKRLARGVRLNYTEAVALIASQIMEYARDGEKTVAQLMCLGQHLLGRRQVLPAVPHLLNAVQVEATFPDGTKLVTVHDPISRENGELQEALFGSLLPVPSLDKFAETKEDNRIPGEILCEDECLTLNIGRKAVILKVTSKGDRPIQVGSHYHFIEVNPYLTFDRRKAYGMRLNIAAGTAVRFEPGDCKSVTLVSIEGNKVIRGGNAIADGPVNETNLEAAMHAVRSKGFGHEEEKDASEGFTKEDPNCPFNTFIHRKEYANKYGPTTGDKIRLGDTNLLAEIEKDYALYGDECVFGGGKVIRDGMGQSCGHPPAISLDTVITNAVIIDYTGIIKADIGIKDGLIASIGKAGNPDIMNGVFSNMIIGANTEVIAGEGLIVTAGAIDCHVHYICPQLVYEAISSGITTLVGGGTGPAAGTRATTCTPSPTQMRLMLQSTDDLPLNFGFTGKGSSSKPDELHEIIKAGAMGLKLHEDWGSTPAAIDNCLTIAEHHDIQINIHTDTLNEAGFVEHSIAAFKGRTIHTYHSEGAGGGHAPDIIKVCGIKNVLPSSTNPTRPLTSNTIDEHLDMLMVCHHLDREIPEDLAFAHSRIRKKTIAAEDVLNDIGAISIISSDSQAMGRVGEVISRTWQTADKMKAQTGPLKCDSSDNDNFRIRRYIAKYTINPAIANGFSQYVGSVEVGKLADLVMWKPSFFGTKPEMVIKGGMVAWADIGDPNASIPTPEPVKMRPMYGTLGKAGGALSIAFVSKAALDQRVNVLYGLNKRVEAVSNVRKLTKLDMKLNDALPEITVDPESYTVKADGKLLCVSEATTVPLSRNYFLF

Work on `C=C[C@@H](C1=CC(=O)C=C(OC)C1=O)c1ccccc1` [compound 1, 3-methoxydalbergione] yielded a Ki of 138.16 ± 0.06 µM.
